Experimental data published in patent publication US20220047616A1, “Method and Compositions for Treating HTLV-1 Virus Infection” (priority 2019, published 2022).

How the values were obtained:
HIV-1 [1] = settings: reported; cited from earlier work
HEP C = settings: reported; cited from earlier work
HCV H strain NS5B = HCV H strain NS5B (Hepatitis C virus genotype 1a, UniProt P27958); settings: reported; cited from earlier work
HSV-1 = settings: reported; cited from earlier work
HSV-2 = settings: reported; cited from earlier work
ADV-3 = settings: reported; cited from earlier work
ADV-8 = settings: reported; cited from earlier work
ADV-11 = settings: reported; cited from earlier work
HEP B = settings: reported; cited from earlier work
ENTV CVB1 = settings: reported; cited from earlier work
ENTV EV71 = settings: reported; cited from earlier work
Dengue virus = settings: Cheung et al. 2014; cited from earlier work
Ebolavirus (EBOV/Kik) = type: cell-based; settings: compositions added to cells, then virus, 1 hr; FIGS. 1-2
Marburgvirus (MARV/Ci67) = type: cell-based; settings: compositions added to cells, then virus, 1 hr; FIGS. 3-4
ZIKV (PLCal_ZV strain) = assay: Protection of ZIKV-induced cytopathic effect (CPE) with Neutral Red readout; type: cell-based, Zikavirus; settings: CPE-based assay, Vero cells, 6 days
Method: (§1) A CPE-based antiviral assay was performed by infecting target cells in the presence or absence of test compositions, at a range of concentrations. […] cytopathic effects and cell death. […] For CPE-based assays, cell viability was determined with a neutral red readout. Viable cells incorporate neutral red in their lysosomes. Uptake of neutral red relies on the ability of live cells to maintain a lower pH inside their lysosomes than in the cytoplasm, and this active process requires ATP. Once inside the lysosome, the neutral red dye becomes charged and is retained intracellularly. […] The amount of neutral red in solution was quantified by reading the absorbance (optical density) of each well at 490 nm […]
(§2) Cytotoxic effects were evaluated in uninfected cells by comparing viability in the presence of inhibitors to the viability of mock-treated cells. Cytotoxicity was determined by an XTT viability assay, which was conducted at the same timepoint as the readout for the corresponding infection assay.
(§3) Test compositions were dissolved in 100% methanol. […] When possible, the EC50 and CC50 of the composition was determined for each assay using GraphPad Prism software. […]
Protection of ZIKV-induced cytopathic effect (CPE) with Neutral Red readout: For the ZIKV antiviral assay, the PLCal_ZV strain was used. […]

[2] = tested on: DENV2 (08-10381 Montserrat strain); assay: Protection of DENV2-induced cytopathic effect (CPE) with Neutral Red readout; type: cell-based, Dengue virus; settings: CPE-based assay, Vero cells, 7 days
Method: as §1, §2, §3
Protection of DENV2-induced cytopathic effect (CPE) with Neutral Red readout: For the DENV2 antiviral assay, the 08-10381 Montserrat strain was used. […]

HTLV-1 [3] = assay: HTLV-1 replication and release of p19Gag-containing particles from SLB1 cells (Anti-HTLV-1 p19Gag ELISA); type: cell-based; settings: SLB1 cells, 10, 50, 100 μg/ml, 72 hrs
HTLV-1 [4] = assay: Infectivity of HTLV-1 particles from treated SLB1 cells on primary huPBMCs (p19Gag ELISA); type: cell-based; settings: lowest concentration 10 μg/ml, relative to vehicle control
HTLV-1 [5] = assay: HTLV-1 transmission in SLB1/huPBMC co-culture (p19Gag ELISA); type: cell-based; settings: SLB1 pre-treated 15 min or 3 hrs, co-culture 72 hrs
HTLV-1 [6] = assay: Virological synapse formation and HTLV-1 transmission in co-culture (fluorescence microscopy, gp21-positive huPBMCs); type: cell-based; settings: SLB1/pLenti-GFP pre-treated 3 hrs, 10, 50, 100 μg/ml
HIV-1 [7] = settings: cited from earlier work
rhinovirus = assay: Antiviral activity against rhinovirus infection; settings: concentrations and assays employed herein
[8] = tested on: HTLV-1+ SLB1 lymphoma T-cell-line; assay: Cytotoxicity/apoptosis in HTLV-1+ SLB1 lymphoma T-cells (Annexin V-FITC/PI); settings: 72 hrs

HCV H strain NS5B, sequence (P27958 2421-3011): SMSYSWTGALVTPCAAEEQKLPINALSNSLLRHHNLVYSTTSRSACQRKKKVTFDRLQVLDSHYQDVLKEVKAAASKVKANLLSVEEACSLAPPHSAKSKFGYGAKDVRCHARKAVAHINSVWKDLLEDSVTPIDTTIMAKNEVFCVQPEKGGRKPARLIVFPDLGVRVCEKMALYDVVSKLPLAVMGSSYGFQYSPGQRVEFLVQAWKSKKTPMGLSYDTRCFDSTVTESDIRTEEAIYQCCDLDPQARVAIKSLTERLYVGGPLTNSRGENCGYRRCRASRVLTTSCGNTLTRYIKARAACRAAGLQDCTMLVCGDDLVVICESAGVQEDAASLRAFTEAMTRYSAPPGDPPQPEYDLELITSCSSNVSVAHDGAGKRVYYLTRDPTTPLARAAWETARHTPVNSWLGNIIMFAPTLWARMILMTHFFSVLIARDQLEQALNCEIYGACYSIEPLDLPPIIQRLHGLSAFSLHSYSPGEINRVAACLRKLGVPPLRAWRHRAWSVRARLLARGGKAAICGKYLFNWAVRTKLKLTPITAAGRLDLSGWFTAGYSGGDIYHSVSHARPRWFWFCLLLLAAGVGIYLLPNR

## CC1(C)CC[C@]2(C(=O)O)CC[C@]3(C)C(=CC[C@@H]4[C@@]5(C)CC[C@H](O)C(C)(C)[C@@H]5CC[C@]43C)[C@@H]2C1 [Oleanolic acid, oleanolic acid]
HIV-1 [1]
  anti-viral activity against HIV-1: some anti-viral activity
HEP C
  anti-viral activity against HEP C: some anti-viral activity
HCV H strain NS5B
  anti-viral activity against HCV H strain NS5B: some anti-viral activity

## C[C@H]1[C@H](C)CC[C@]2(C(=O)O)CC[C@]3(C)C(=CC[C@@H]4[C@@]5(C)CC[C@H](O)C(C)(C)[C@@H]5CC[C@]43C)[C@H]12 [Ursolic acid, ursolic acid]
HIV-1 [1]
  anti-viral activity against HIV-1: some anti-viral activity
HSV-1
  anti-viral activity against HSV-1: some anti-viral activity
HEP C
  anti-viral activity against HEP C: some anti-viral activity
HCV H strain NS5B
  anti-viral activity against HCV H strain NS5B: some anti-viral activity
HSV-2
  anti-viral activity against HSV-2: some anti-viral activity
ADV-3
  anti-viral activity against ADV-3: some anti-viral activity
ADV-8
  anti-viral activity against ADV-8: some anti-viral activity
ADV-11
  anti-viral activity against ADV-11: some anti-viral activity
HEP B
  anti-viral activity against HEP B: some anti-viral activity
ENTV CVB1
  anti-viral activity against ENTV CVB1: some anti-viral activity
ENTV EV71
  anti-viral activity against ENTV EV71: some anti-viral activity

## C[C@H]1O[C@@H](O[C@H]2[C@@H](O)C[C@H](O[C@H]3[C@@H](O)C[C@H](O[C@H]4CC[C@@]5(C)[C@H](CC[C@@H]6[C@@H]5C[C@@H](O)[C@]5(C)[C@@H](C7=CC(=O)OC7)CC[C@]65O)C4)O[C@@H]3C)O[C@@H]2C)C[C@H](O)[C@@H]1O [digoxin, reference compound]
Vero E6 cells
  cellular viability of Vero E6 cells: did not reduce cellular viability

## CC(=O)O[C@H]1C[C@H](O[C@H]2[C@@H](O)C[C@H](O[C@H]3[C@@H](O)C[C@H](O[C@H]4CC[C@@]5(C)[C@H](CC[C@@H]6[C@@H]5C[C@@H](O)[C@]5(C)[C@@H](C7=CC(=O)OC7)CC[C@]65O)C4)O[C@@H]3C)O[C@@H]2C)O[C@H](C)[C@H]1O[C@@H]1O[C@H](CO)[C@@H](O)[C@H](O)[C@H]1O [lanatoside C]
Dengue virus
  antiviral activity against Dengue virus: demonstrates antiviral activity

## CO[C@H]1C[C@H](O[C@H]2CC[C@@]3(C)[C@H](CC[C@@H]4[C@@H]3CC[C@]3(C)[C@@H](C5=CC(=O)OC5)[C@@H](OC(C)=O)C[C@]43O)C2)O[C@@H](C)[C@@H]1O [oleandrin]
Ebolavirus (EBOV/Kik)
  efficacy against Ebolavirus (dose response, based on oleandrin content): efficacious
Marburgvirus (MARV/Ci67)
  efficacy against Marburgvirus (dose response, based on oleandrin content): efficacious
ZIKV (PLCal_ZV strain)
  efficacy against Zikavirus: demonstrates efficacy
[2]
  efficacy against Dengue virus: demonstrates efficacy
HTLV-1 [3]
  HTLV-1 replication / release of p19Gag-containing virus particles: does not significantly inhibit
HTLV-1 [4]
  infectivity of newly-synthesized p19Gag-containing virus particles on huPBMCs: inhibited the infectivity
HTLV-1 [5]
  transmission of HTLV-1 in co-culture (extracellular p19Gag): inhibited the transmission of HTLV-1 as compared to the vehicle control
HTLV-1 [6]
  formation of virological synapses and transmission of HTLV-1: inhibited the formation of virological synapses and the transmission of HTLV-1 in vitro
Vero E6 cells
  cellular viability of Vero E6 cells: did not reduce cellular viability
HIV-1 [7]
  HIV-1 viral infectivity in vitro: inhibit viral infectivity in vitro
  incorporation of gp120 envelope glycoprotein of HIV-1 into mature virus particles: prevent the incorporation
HIV-1 [1]
  anti-viral activity against HIV-1: demonstrated anti-HIV activity
rhinovirus
  activity against rhinovirus (viral replication): inactive
[8]; 10 μg/ml
  cytotoxicity/apoptosis in SLB1 cells at the lowest concentration: did not induce significant cytotoxicity/apoptosis
[8]
  cytotoxicity in SLB1 cells compared with Vehicle control: not significantly higher than the Vehicle control
